Patent publication US10077290B2, “Stabilized antiviral fusion helices” (priority 2011, dated 2018)
Entries after “also recorded” stand apart in the source; their conditions may differ. Read-outs that look alike come from different tables or passages of the source. Bridges are numbered along the chain shown (N, C = ends). Where no end group is shown, it is not given here. [ ]: non-standard residue; d: D form. R8 = C=CCCCCCC[C@@](C)(N)C(=O)O; S5 = C=CCCC[C@](C)(N)C(=O)O

Columns and labels:
rgRSV [1] = test: rgRSV in vitro infectivity assay in Vero cells; type: cell-based, Respiratory Syncytial Virus (RSV); conditions: for inhibition of RSV infection (anti-RSV activity): rgRSV 0.1 MOI, 24 hour post-infection; for RSV infection, peptide administered before viral exposure (prophylactically): SAHF for 1 hour followed by rgRSV 0.1 MOI; for RSV infection, peptide administered after viral exposure: rgRSV 0.1 MOI for 1 hour followed by SAHF
Experimental: To test the capacity of SAHF peptides to block RSV infection of culture cells, an in vitro infectivity assay was performed in the presence and absence of SAHF peptides. Briefly, Vero cells plated in 48-well format (60,000 cells/well) were exposed to rgRSV only (0.1 MOI) and SAHF peptides, followed by imaging 24 hour post-infection to quantitate infectivity by confocal microscopy and FACS analysis Annexin V staining was also performed on harvested Vero cells to distinguish live from dead cells when calculating percent GFP positive cells.
(§1) Vero cells plated in 48-well format (60,000 cells/well) were exposed to (a) rgRSV only (0.1 MOI); (b) rgRSV for 1 hour followed by treatment with SAHF; and (c) SAHF for 1 hour followed by rgRSV infection, and then imaged 24 hour post-infection to quantitate infectivity by confocal microscopy and FACS analysis.

RSV 5-helix bundle = test: Competition fluorescence polarization assay (FPA) against FITC-RSV HR2 (488-522); type: binding, Respiratory Syncytial Virus (RSV)
Experimental: To assess binding activity toward the RSV fusogenic bundle, competition FPA was performed using recombinant five-helix bundle protein, fluorescent HR2 peptide (488-522), and serial dilutions of SAHF peptides shown in Table 2. More specifically, a 5-helix bundle protein was designed containing five of the six helices that comprise the core of the RSV-F trimer of hairpins, connected by short peptide linkers in accordance with the design of the gp41 5-helix bundle (Root et al., Science, 291:884-888, 2001). Because the 5-helix bundle lacks the third HR2 helix but is otherwise soluble, stable, and helical, incorporation of the sixth HR2 peptide in the form of FITC-RSV (488-522) yielded a stable complex, which can be competed with acetylated SAH-RSV peptides to gauge relative binding affinity.
FPA assays were used to measure and compare the relative binding activities of distinct SAHF constructs for the RSV fusion bundle. First, FITC-RSV HR2 peptide (488-522) is mixed with a serial dilution of recombinant 5-helix bundle protein to generate a binding isotherm. A fixed concentration of FITC-peptide and protein at ˜EC75 was then incubated with a serial dilution of acetylated SAHF peptide to generate competition curves for comparative analysis. Fluorescence polarization (mP units) was measured on a SpectraMax fluorimeter and IC50 values calculated by nonlinear regression analysis of competition curves using Prism software (Graphpad).

RSV-A2 [2] = test: RSV-A2 lung infection of BALB/c mice after prophylactic intranasal peptide; type: in vivo
Experimental: One hour post treatment, three groups of mice were inoculated with a single dose of RSV-A2 at 1×10^6 pfu/mouse. Peptide dosing and viral inoculation was repeated 16 hours post-infection. The fourth group was treated with volume-equivalent vehicle and mock-infected. Two mice from each group were sacrificed 4 days after the second infection and left lung lobes harvested after 1% paraformaldehyde perfusion, followed by cryopreservation in OCT. Sections (5 μm) were treated with 1:1000 dilution of rabbit anti-RSV polyclonal antibody (Millipore) overnight followed by anti-rabbit antibody conjugated to Alexa Fluor 555 (1:400) (red) (Molecular Probes) for 1 h. Sections were washed and mounted with medium containing DAPI (blue) and viewed with an Olympus fluorescent microscope (FIG. 17A; original magnification 20×). Image J analysis was performed on the acquired images and the percentage RSV-positive cells (red) of total DAPI-positive cells (blue) determined from 8 images (4 sections) per mice (FIG. 17B; .error bars represent mean+/−SEM; *, p<0.0001). Four days after the second infection, bronchoalveolar lavage (BAL) was performed on one mouse from each group and BAL supernatant used to determine the viral titers by plaque assay on Hep-2 cells (FIG. 17C; error bars represent mean+/−SEM of plaques counted per in vivo specimen; *, p<0.05). Also at four days after the second infection, cranial and caudal lobes of the right lung from two mice per group were snap frozen on dry ice. A lung homogenate was generated from the cranial lobe and supernatant subjected to viral titer determination (log 10 pfu/ml) (FIG. 17D; error bars represent mean+/−SEM; *, p<0.05). Total RNA was isolated from the caudal lobe of the right lung and quatitative RT-PCR was performed for the RSV-N gene. The results of this analysis are presented in FIG. 17E in which the bar graphs represent the RSV-N gene expression normalized to the mock-infected tissue.

RgRSV [3] = test: Intranasal RgRSV infection of BALB/c mice after intranasal peptide; type: in vivo; conditions: RgRSV-infected, 125 μM intranasally
Experimental: One hour post treatment, three groups of mice were inoculated with a single dose of RgRSV at 1×10^6 pfu/mouse, with the fourth group receiving a mock inoculation. Mice were sacrificed at 24 hours post infection and the noses harvested, sectioned, stained with DAPI and imaged with an Olympus fluorescent microscope (FIG. 16A; original magnification 20×). Image J analysis was performed on the acquired images (FIG. 16B) and average GFP positive (green) and DAPI positive (blue) cells were calculated from eight images (4 sections) per mouse (bars represent percent GFP positive of total DAPI-positive cells present in the images and error bars represent mean+/−SEM. *, p<0.001). FIG. 16C depicts the results of hematoxylin and eosin staining of the nose sections (original magnification 20×, insets 100×) In FIG. 16C black arrows highlight thickened mucosa.

rgRSV [4] = test: Virus-induced syncytia formation in Vero cells; type: cell-based, Respiratory Syncytial Virus (RSV); conditions: administered before or after viral exposure
Experimental: as §1

RSV-A2 [5] = test: RSV-A2 infection of A549 cells at 1 MOI, Hep-2 plaque assay titers; type: cell-based, Respiratory Syncytial Virus (RSV); conditions: 5 μM peptide
Experimental: In this study A549 cells were plated in a 24 well plate at 30,000 cells/well. The following day, the cells were treated with 5 μM of the indicated stapled SAHF peptide or volume-equivalent DMSO vehicle, followed by RSV-A2 infection at 1 MOI. The cells were infected for 2 h, and the infection medium replaced with 400 μl of DMEM containing 5% FBS and 5 μM of the indicated stapled SAHF peptide. Cells were harvested along with the supernantant 24 h post infection, vortexed for 10 sec, and the supernatant collected, leaving the cell pellet behind. Hep-2 cells were plated on a 24 well plate at 60,000 cells/well the day before use. Plaque assay was performed on Hep-2 cells using the collected supernatant and titers determined at 5 days post infection of Hep-2 cells. The results of this analysis are shown in FIG. 14 in which titers are shown as log 10 pfu/ml and the values represent the mean+/−SEM for two independent experiments (***p<0.001; ****p<0.0001).

rgRSV [6] = test: Intranasal peptide followed by transnasal rgRSV infection in mice; type: in vivo; conditions: 250 μM, 25 μL intranasally four hours before rgRSV, 20 hours post-infection
Experimental: To examine the capacity of SAH-RSV peptides to inhibit RSV infection in vivo, vehicle or SAH-RSV peptide (250 μM, 25 μL) was administered to anesthetized mice intranasally followed by transnasal infection with rgRSV (5×10^5 PFU, 36 μL) four hours later. Mice were sacrificed 20 hours post-infection, and the nasal epithelium cryosectioned, stained with DAPI, and imaged using a fluorescent microscope.

[7] = Circular dichroism (CD) alpha-helicity; type: physicochemical; conditions: aqueous solution (pH 7, 35° C.)
Experimental: Compounds are dissolved in an aqueous solution (e.g. 5 mM potassium phosphate solution at pH 7, or distilled H2O, to concentrations of 25-50 μM). Circular dichroism (CD) spectra are obtained on a spectropolarimeter (e.g., Jasco J-710, Aviv) using standard measurement parameters (e.g. temperature, 20° C.; wavelength, 190-260 nm; step resolution, 0.5 nm; speed, 20 nm/sec; accumulations, 10; response, 1 sec; bandwidth, 1 nm; path length, 0.1 cm). The α-helical content of each peptide is calculated by dividing the mean residue ellipticity by the reported value for a model helical decapeptide (Yang et al., Methods Enzymol. 130:208 (1986)).
To document secondary structure improvements of hydrocarbon-stapled peptides, circular dichroism (CD) spectra was recorded and analyzed on a Model 410 Aviv Biomedical spectrometer (Walensky, supra; Bird, supra). […] The target peptide concentration for CD studies is 25-50 μM in 50 mM potassium phosphate (pH 7.5) or Milli-Q deionized water, and exact concentrations are confirmed by quantitative AAA of two CD sample dilutions. […] After conversion to mean residue ellipticity, percent α-helicity can be calculated using the equation, % helicity=100×[θ]222/max[θ]222, where max[θ]222=−40,000×[1−(2.5/number of amino acid residues)]. […]

Substance: F8ASISQVXEKINQSLAFIRKSDELLHNVNAGKST (Ac-F[R8]ASISQV[S5]EKINQSLAFIRKSDELLHNVNAGKST; staple 2-9) [SAHF-G]
- inhibition of RSV infection (anti-RSV activity) (rgRSV [1]): superior
- 5-helix bundle binding activity (RSV 5-helix bundle): superior 5-helix bundle binding

Substance: FD8SISQVNXKINQSLAFIRK8DELLHNXNAGKST (FDXSISQVNXKINQSLAFIRKXDELLHNXNAGKST; two hydrocarbon staples; MOD_RES (3)..(3) Any amino acid; (3)..(10) Crosslink between residues; MOD_RES (10)..(10) Any amino acid; MOD_RES (22)..(22) Any amino acid; (22)..(29) Crosslink between residues; MOD_RES (29)..(29) Any amino acid) [SAHF-H, L, control]
- RSV-A2 lung infection, by each measure (RSV-positive cells, BAL and lung homogenate titers, RSV-N gene) (RSV-A2 [2]; 125 μM intranasally, dosing and inoculation repeated at 16 hours, 4 days after second infection): no effect
- inflammation in nose sections (hematoxylin and eosin staining) (RgRSV [3]): Inflammation is noted

Substance: FD8SISQVNXKINQSLAFIRKSDELLHNVNAGKST (FDXSISQVNXKINQSLAFIRKSDELLHNVNAGKST; hydrocarbon staple; MOD_RES (3)..(3) Any amino acid; (3)..(10) Crosslink between residues; MOD_RES (10)..(10) Any amino acid) [SAHF-H]
- RSV infection, peptide administered before viral exposure (prophylactically) (rgRSV [1]): inhibited RSV infection; also recorded: blocks RSV infection of Vero cells
- RSV infection, peptide administered after viral exposure (rgRSV [1]): inhibited RSV infection; also recorded: blocks RSV infection of Vero cells
- inhibition of RSV infection (anti-RSV activity) (rgRSV [1]): superior
- 5-helix bundle binding activity (RSV 5-helix bundle): superior 5-helix bundle binding
- virus-induced syncytia formation (rgRSV [4]): blocked syncytial formation; also recorded: inhibits virus-induced syncytia formation

Substance: FDA8ISQVNEXINQSLAFI8KSDELLXNVNAGKST (Ac-FDA[R8]ISQVNE[S5]INQSLAFI[R8]KSDELL[S5]NVNAGKST; staple 4-11, 20-27) [SAHF-I, J]
- RSV-A2 infection (viral titers) (RSV-A2 [5]): inhibit RSV-A2 infection of A549 cells

Substance: FDA8SQVVNEXINQSLAFIRKSDELLHNVNAGKST [SAHF-I]
- inhibition of RSV infection (anti-RSV activity) (rgRSV [1]): superior
- 5-helix bundle binding activity (RSV 5-helix bundle): superior 5-helix bundle binding

Substance: FDASISQVNEKINQSLAFI8KSDELLXNVNAGKST (Ac-FDASISQVNEKINQSLAFI[R8]KSDELL[S5]NVNAGKST; staple 20-27) [SAHF-J]
- inhibition of RSV infection (anti-RSV activity) (rgRSV [1]): superior
- 5-helix bundle binding activity (RSV 5-helix bundle): superior 5-helix bundle binding

Substance: FDASISQVNEKINQSLAFIR8SDELLHXVNAGKST (Ac-FDASISQVNEKINQSLAFIR[R8]SDELLH[S5]VNAGKST; staple 21-28) [SAHF-K]
- inhibition of RSV infection (anti-RSV activity) (rgRSV [1]): superior
- 5-helix bundle binding activity (RSV 5-helix bundle): superior 5-helix bundle binding

Substance: FDASISQVNEKINQSLAFIRK8DELLHNXNAGKST [SAHF-L, negative control]
- RSV infection, peptide administered before viral exposure (prophylactically) (rgRSV [1]): little to no effect
- RSV infection, peptide administered after viral exposure (rgRSV [1]): little to no effect
- inhibition of RSV infection (anti-RSV activity) (rgRSV [1]): nor suppressed RSV infection in vitro
- inhibition of RSV infection (anti-RSV activity) (rgRSV [1]; listed as SAH-RSV(L)): no activity
- 5-helix bundle binding activity (RSV 5-helix bundle): no binding activity; also recorded: did not bind
- 5-helix bundle binding activity (RSV 5-helix bundle; listed as SAH-RSV(L)): poor binding activity; also recorded: incapable of binding the 5-helix bundle
- RSV infection of nasal mucosa (GFP-positive cells) (rgRSV [6]): no in vivo activity
- virus-induced syncytia formation (rgRSV [4]): little to no effect

Substance: FDASISQVNEKINQSLAFIRKSDELLHNVNAGKST [RSV HR2 (488-522)WT, reference compound]
- RSV-N gene expression in lung (quantitative RT-PCR) (RSV-A2 [2]; caudal lobe of right lung): no observed effect
- percent α-helicity [7]: ~23%

Substance: FDAXISQXNEKINQSLAFIRKSDELLHNVNAGKST (Ac-FDA[S5]ISQ[S5]NEKINQSLAFIRKSDELLHNVNAGKST; staple 4-8) [SAHF-C]
- inhibition of RSV infection (anti-RSV activity) (rgRSV [1]): suppressed RSV infection in vitro
- 5-helix bundle binding activity (RSV 5-helix bundle): bound the 5-helix bundle
- RSV infection of nasal mucosa (GFP-positive cells) (rgRSV [6]): markedly suppressed RSV infection; also recorded: blocks trans-nasal RSV infection in mice
